# ChEMBL document CHEMBL4052802, “Design, synthesis and biological evaluation of novel 3-oxo-4-oxa-5α-androst-17β-amide derivatives as dual 5α-reductase inhibitors and androgen receptor antagonists” (Bioorg Med Chem Lett, 2017)
# Legend:
# [1] = test system: PC-3; assay: Cytotoxicity against human PC3 cells after 48 hrs by MTT assay; type: functional, cell-based; conditions: PC-3, 48 h
# [2] = test system: LNCaP; assay: Growth inhibition of human LNCAP cells at 80 uM after 48 hrs by MTT assay relative to control; type: functional; conditions: read-out: GI
# [3] = Selectivity ratio of IC50 for human PC3 cells to IC50 for human LNCAP cells; type: functional
# [4] = test system: PC-3; assay: Growth inhibition of human PC3 cells at 80 uM after 48 hrs by MTT assay relative to control; type: functional; conditions: PC-3, 48 h, read-out: GI
# [5] = test system: LNCaP; assay: Cytotoxicity against human LNCAP cells after 48 hrs by MTT assay; type: functional, cell-based
# [6] = test system: Plasma; assay: Retention time in Sprague-Dawley rat plasma at 0.2 mg/kg, po measured after 24 hrs by total ion chromatographic method; type: ADME, organism-based; conditions: in vivo
# [7] = Cmax in Sprague-Dawley rat at 0.2 mg/kg, po by LC-MS/MS analysis; type: ADME, organism-based; design: dose 0.2 mg/kg, route oral; conditions: in vivo
# [8] = AUC (0 to infinity) in Sprague-Dawley rat at 0.2 mg/kg, po by LC-MS/MS analysis; type: ADME, organism-based; design: dose 0.2 mg/kg, route oral, time infinity; conditions: in vivo
# [9] = Elimination half-life in Sprague-Dawley rat at 0.2 mg/kg, po by LC-MS/MS analysis; type: ADME, organism-based; conditions: in vivo, read-out: beta t1/2 (converted)
# [10] = Tmax in Sprague-Dawley rat at 0.2 mg/kg, po by LC-MS/MS analysis; type: ADME, organism-based; conditions: in vivo
# [11] = Inhibition of rat liver 5alpha-reductase using testosterone as substrate incubated for 30 mins measured for 10 mins by fluorescence assay
# [12] = AUC (0 to t) in Sprague-Dawley rat at 0.2 mg/kg, po by LC-MS/MS analysis; type: ADME, organism-based; conditions: in vivo
# [13] = biological target: T1, Androgen receptor (Rattus norvegicus, UniProt P15207); assay: Displacement of fluormone-AL Green from recombinant rat His-tagged/GST-fused androgen receptor LBD expressed in baculovirus expression system measured after 1.5 hrs by fluorescence polarization assay
# T1 sequence (P15207 whole entry): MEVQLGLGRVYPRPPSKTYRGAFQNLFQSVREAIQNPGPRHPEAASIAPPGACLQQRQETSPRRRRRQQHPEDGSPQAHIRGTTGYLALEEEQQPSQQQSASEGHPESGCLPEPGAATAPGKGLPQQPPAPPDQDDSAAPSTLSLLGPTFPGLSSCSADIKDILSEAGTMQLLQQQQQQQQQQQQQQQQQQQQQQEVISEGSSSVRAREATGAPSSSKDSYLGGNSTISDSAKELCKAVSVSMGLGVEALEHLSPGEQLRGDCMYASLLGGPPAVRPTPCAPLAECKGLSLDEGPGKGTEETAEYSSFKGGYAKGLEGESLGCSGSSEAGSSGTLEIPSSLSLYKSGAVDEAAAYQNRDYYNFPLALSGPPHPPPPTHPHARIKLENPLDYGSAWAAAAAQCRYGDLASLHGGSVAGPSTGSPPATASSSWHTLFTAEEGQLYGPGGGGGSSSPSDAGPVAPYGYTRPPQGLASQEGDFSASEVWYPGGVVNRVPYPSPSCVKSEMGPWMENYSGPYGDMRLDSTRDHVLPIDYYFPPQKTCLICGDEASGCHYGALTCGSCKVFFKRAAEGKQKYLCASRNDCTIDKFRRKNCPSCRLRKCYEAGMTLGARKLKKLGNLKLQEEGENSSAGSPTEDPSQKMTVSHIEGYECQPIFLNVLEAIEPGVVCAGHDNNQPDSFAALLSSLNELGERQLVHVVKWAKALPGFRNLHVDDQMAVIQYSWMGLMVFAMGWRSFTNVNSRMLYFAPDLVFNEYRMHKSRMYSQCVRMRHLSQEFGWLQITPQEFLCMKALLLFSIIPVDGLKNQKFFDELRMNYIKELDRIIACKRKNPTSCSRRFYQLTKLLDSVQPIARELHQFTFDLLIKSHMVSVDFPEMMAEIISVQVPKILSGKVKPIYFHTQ
# [14] = biological target: Androgen receptor (Homo sapiens) (UniProt P10275); assay: Inhibition of recombinant human His-tagged/GST-fused androgen receptor LBD expressed in baculovirus expression system at 50 uM measured after 1.5 hrs by fluorescence polarization assay relative to control
# [15] = organism: Rattus norvegicus; assay: Inhibition of rat liver 5alpha-reductase at 50 uM using testosterone as substrate incubated for 30 mins measured for 10 mins by fluorescence assay relative to control
# [16] = test system: Plasma; assay: Drug uptake in Sprague-Dawley rat plasma at 0.2 mg/kg, po after 6 hrs by LC-MS/MS analysis; type: ADME, organism-based; conditions: in vivo
# [17] = biological target: T2, 3-oxo-5-alpha-steroid 4-dehydrogenase 1 (Homo sapiens, UniProt P18405); assay: Inhibition of recombinant human 5alpha-reductase type1 expressed in baculovirus expression system using [7-3H]T as substrate pretreated for 18 hrs followed by substrate addition measured after 90 mins by reverse-phase HPLC method
# T2 sequence (P18405 whole entry): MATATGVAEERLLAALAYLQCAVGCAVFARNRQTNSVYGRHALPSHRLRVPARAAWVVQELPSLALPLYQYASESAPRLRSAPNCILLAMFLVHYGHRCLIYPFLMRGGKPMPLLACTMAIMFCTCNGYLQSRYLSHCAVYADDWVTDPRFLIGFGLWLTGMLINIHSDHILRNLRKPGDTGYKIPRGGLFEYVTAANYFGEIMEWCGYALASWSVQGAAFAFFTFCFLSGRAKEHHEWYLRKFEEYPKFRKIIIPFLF
# [18] = biological target: T3, Androgen receptor (Homo sapiens, UniProt P10275); assay: Displacement of [3H]-DHT from recombinant human androgen receptor expressed in CHO cells; type: cell-based
# T3 sequence (P10275 whole entry): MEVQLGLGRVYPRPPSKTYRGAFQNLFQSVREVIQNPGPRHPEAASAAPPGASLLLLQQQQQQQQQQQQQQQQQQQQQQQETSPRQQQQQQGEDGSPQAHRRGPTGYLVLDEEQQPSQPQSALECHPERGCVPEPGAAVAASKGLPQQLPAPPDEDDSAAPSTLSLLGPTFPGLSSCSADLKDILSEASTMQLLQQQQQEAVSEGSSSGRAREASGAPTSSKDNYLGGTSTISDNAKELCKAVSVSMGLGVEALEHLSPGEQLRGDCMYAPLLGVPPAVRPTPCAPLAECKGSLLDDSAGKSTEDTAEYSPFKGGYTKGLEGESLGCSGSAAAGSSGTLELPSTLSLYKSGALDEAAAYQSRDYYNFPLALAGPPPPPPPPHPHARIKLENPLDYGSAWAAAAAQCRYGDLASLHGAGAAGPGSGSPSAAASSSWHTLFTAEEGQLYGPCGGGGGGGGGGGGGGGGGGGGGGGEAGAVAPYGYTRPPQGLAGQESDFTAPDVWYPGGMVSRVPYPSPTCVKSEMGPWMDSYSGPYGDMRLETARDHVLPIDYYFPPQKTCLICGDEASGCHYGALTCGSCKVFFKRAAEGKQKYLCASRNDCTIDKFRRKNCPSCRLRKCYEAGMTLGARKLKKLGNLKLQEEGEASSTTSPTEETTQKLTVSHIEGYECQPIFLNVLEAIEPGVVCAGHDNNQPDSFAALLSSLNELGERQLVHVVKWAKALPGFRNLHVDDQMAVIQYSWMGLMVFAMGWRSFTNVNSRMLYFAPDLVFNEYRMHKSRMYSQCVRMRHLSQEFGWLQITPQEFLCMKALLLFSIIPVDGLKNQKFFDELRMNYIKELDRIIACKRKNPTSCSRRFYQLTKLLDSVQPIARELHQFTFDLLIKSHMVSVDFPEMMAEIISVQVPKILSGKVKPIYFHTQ
# [19] = biological target: T4, 3-oxo-5-alpha-steroid 4-dehydrogenase 2 (Homo sapiens, UniProt P31213); assay: Inhibition of recombinant human 5alpha-reductase type2 expressed in baculovirus expression system using [7-3H]T as substrate pretreated for 18 hrs followed by substrate addition by reverse-phase HPLC method
# T4 sequence (P31213 whole entry): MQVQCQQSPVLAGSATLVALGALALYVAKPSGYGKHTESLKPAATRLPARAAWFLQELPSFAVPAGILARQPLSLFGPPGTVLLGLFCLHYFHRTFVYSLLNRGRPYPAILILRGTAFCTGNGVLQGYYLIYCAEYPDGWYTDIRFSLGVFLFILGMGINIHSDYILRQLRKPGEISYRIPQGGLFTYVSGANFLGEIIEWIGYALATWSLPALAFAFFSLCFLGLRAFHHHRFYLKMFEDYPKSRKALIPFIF
Compound,IC50 [1] [µM],inhibition of growth at 80 µM [2] [%],inhibition of growth at 80 µM [4] [%],inhibition [14] [%],inhibition [15] [%],also measured
Cc1ccc(NC(=O)[C@H]2CC[C@H]3[C@@H]4CC[C@H]5OC(=O)CC[C@]5(C)[C@H]4CC[C@]23C)cc1,114,82.3,18.1,55.5,98.5,Ratio IC50 [3]: 4; IC50 [5]: 26.5 µM; Retention_time [6]: 3.6 min; Cmax [7]: 6.89 ng/mL; AUC(0-inf) [8]: 54.1 ng·h/mL; half-life [9]: 4.74 h; Tmax [10]: 3.83 h; IC50 [11]: 0.27 µM; AUC(0-t) [12]: 52.5 ng·h/mL; IC50 [13]: 47.6 µM; Drug uptake [16]: Not Active
C[C@]12CCC(=O)O[C@@H]1CC[C@@H]1[C@@H]2CC[C@]2(C)[C@@H](C(=O)N(C3CCCCC3)C3CCCCC3)CC[C@@H]12,74.3,13.8,32,11.3,33.4,
C[C@]12CCC(=O)O[C@@H]1CC[C@@H]1[C@@H]2CC[C@]2(C)[C@@H](C(=O)Nc3ccc(F)cc3)CC[C@@H]12,50,39.7,46.3,18.9,46.9,
C[C@]12CCC(=O)O[C@@H]1CC[C@@H]1[C@@H]2CC[C@]2(C)[C@@H](C(=O)N(Cc3ccccc3)Cc3ccccc3)CC[C@@H]12,127,81.8,12.9,57.1,69.8,Ratio IC50 [3]: 4; IC50 [5]: 29.8 µM; IC50 [13]: 16.8 µM
C[C@]12CCC(=O)N[C@@H]1CC[C@@H]1[C@@H]2CC[C@]2(C)[C@@H](C(=O)Nc3ccccc3)CC[C@@H]12,,,,,,IC50 [17]: 0.41 µM; IC50 [18]: 23 µM; IC50 [19]: 0.015 µM
C[C@]12CCC(=O)O[C@@H]1CC[C@@H]1[C@@H]2CC[C@]2(C)[C@@H](C(=O)N3CCCCC3)CC[C@@H]12,85.4,12.3,26.2,17.4,89.3,IC50 [11]: 6.01 µM
C[C@H]1CC(=O)C[C@@H]2CC[C@H]3[C@@H]4CC[C@H](O)[C@@]4(C)CC[C@@H]3[C@]21C [MESTEROLONE],,,,,,IC50 [13]: 18.3 µM
C[C@]12CCC(=O)O[C@@H]1CC[C@@H]1[C@@H]2CC[C@]2(C)[C@@H](C(=O)Nc3ccccc3)CC[C@@H]12,86.2,24.2,31.7,7.09,67.3,
CC(C)C(=O)Nc1ccc([N+](=O)[O-])c(C(F)(F)F)c1 [FLUTAMIDE],67.3,63,21.2,,,IC50 [5]: 47.6 µM
CCN(CC)C(=O)[C@H]1CC[C@H]2[C@@H]3CC[C@H]4OC(=O)CC[C@]4(C)[C@H]3CC[C@]12C,68.2,42.7,27.9,33.7,39.5,
CC(C)(C)NC(=O)[C@H]1CC[C@H]2[C@@H]3CC[C@H]4OC(=O)CC[C@]4(C)[C@H]3CC[C@]12C,70.1,37.3,28.1,3.73,48.3,
CC(C)(C)NC(=O)[C@H]1CC[C@H]2[C@@H]3CC[C@H]4NC(=O)C=C[C@]4(C)[C@H]3CC[C@]12C [FINASTERIDE],> 80,,0.4,,94.3,Retention_time [6]: 3.5 min; Cmax [7]: 4.19 ng/mL; AUC(0-inf) [8]: 23.8 ng·h/mL; half-life [9]: 3.91 h; Tmax [10]: 2.67 h; IC50 [11]: 0.59 µM; AUC(0-t) [12]: 23.5 ng·h/mL
CN(C(=O)[C@H]1CC[C@H]2[C@@H]3CC[C@H]4OC(=O)CC[C@]4(C)[C@H]3CC[C@]12C)c1ccccc1,62.2,30,35.1,14.3,84.2,IC50 [11]: 0.89 µM
CCCCN(CCCC)C(=O)[C@H]1CC[C@H]2[C@@H]3CC[C@H]4OC(=O)CC[C@]4(C)[C@H]3CC[C@]12C,40.1,88.9,89.9,11.8,36.5,IC50 [5]: 32.4 µM
C[C@]12CCC(=O)O[C@@H]1CC[C@@H]1[C@@H]2CC[C@]2(C)[C@@H](C(=O)N(c3ccccc3)c3ccccc3)CC[C@@H]12,75.2,31.4,35.4,3.29,15.5,
